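Cells were grown in 96-well plates and exposed to each compound for 48 hours at five concentrations; endpoints were interpolated linearly between bracketing concentrations, or set to the highest concentration if not reached. GI50 marks 50% less growth. The concentration for full growth arrest is given as TGI.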
Experiments:
Experiment in all cases: growth of human tumour cells (NCI), 48 h
HCT-116 colon = system: HCT-116 colon
SK-MEL-28 melanoma = system: SK-MEL-28 melanoma
NCI-H226 lung = system: NCI-H226 lung
DU-145 prostate = system: DU-145 prostate
U251 CNS = system: U251 CNS
SF-295 CNS = system: SF-295 CNS
SK-MEL-5 melanoma = system: SK-MEL-5 melanoma
OVCAR-5 ovarian = system: OVCAR-5 ovarian
A549 NSCLC = system: A549 NSCLC
RXF 393 renal = system: RXF 393 renal
SF-539 CNS = system: SF-539 CNS
BT-549 breast = system: BT-549 breast
ACHN renal = system: ACHN renal
UACC-62 melanoma = system: UACC-62 melanoma
CCRF-CEM leukemia = system: CCRF-CEM leukemia
MALME-3M melanoma = system: MALME-3M melanoma
EKVX NSCLC = system: EKVX NSCLC
MDA-MB-468 breast = system: MDA-MB-468 breast
OVCAR-3 ovarian = system: OVCAR-3 ovarian
SK-MEL-2 melanoma = system: SK-MEL-2 melanoma
IGROV1 ovarian = system: IGROV1 ovarian
M14 melanoma = system: M14 melanoma
COLO 205 colon = system: COLO 205 colon
SNB-19 CNS = system: SNB-19 CNS
SF-268 CNS = system: SF-268 CNS
SK-OV-3 ovarian = system: SK-OV-3 ovarian

Cc1cc(=O)oc2cc(OCCCOc3ccc(/C=C/C(=O)Nc4ccccc4N)cc3)ccc12
GI50 (HCT-116 colon): 2240 nM | TGI (HCT-116 colon): > 100 µM | GI50 (SK-MEL-28 melanoma): 3.6 µM | TGI (SK-MEL-28 melanoma): > 100 µM | GI50 (NCI-H226 lung): 2450 nM | TGI (NCI-H226 lung): > 100 µM | GI50 (DU-145 prostate): 4.71 µM | TGI (DU-145 prostate): > 100 µM | GI50 (U251 CNS): 5.49 µM | TGI (U251 CNS): > 100 µM | GI50 (SF-295 CNS): 3.42 µM | TGI (SF-295 CNS): > 100 µM | GI50 (SK-MEL-5 melanoma): 716 nM | TGI (SK-MEL-5 melanoma): 2060 nM | GI50 (OVCAR-5 ovarian): 4.34 µM | TGI (OVCAR-5 ovarian): > 100 µM | GI50 (A549 NSCLC): 3.31 µM | TGI (A549 NSCLC): > 100 µM | GI50 (RXF 393 renal): 4.16 µM | TGI (RXF 393 renal): > 100 µM | GI50 (SF-539 CNS): 2220 nM | TGI (SF-539 CNS): > 100 µM | GI50 (BT-549 breast): 923 nM | TGI (BT-549 breast): 3.27 µM | GI50 (ACHN renal): 4.5 µM | TGI (ACHN renal): > 100 µM | GI50 (UACC-62 melanoma): 2790 nM | TGI (UACC-62 melanoma): > 100 µM | GI50 (CCRF-CEM leukemia): 310 nM | TGI (CCRF-CEM leukemia): 1910 nM | GI50 (MALME-3M melanoma): 3.27 µM | TGI (MALME-3M melanoma): > 100 µM | GI50 (EKVX NSCLC): 3.5 µM | TGI (EKVX NSCLC): > 100 µM | GI50 (MDA-MB-468 breast): 1940 nM | TGI (MDA-MB-468 breast): 8.14 µM | GI50 (OVCAR-3 ovarian): 2510 nM | TGI (OVCAR-3 ovarian): > 100 µM | GI50 (SK-MEL-2 melanoma): 3.78 µM | TGI (SK-MEL-2 melanoma): > 100 µM | GI50 (IGROV1 ovarian): 1280 nM | TGI (IGROV1 ovarian): > 100 µM | GI50 (M14 melanoma): 3.16 µM | TGI (M14 melanoma): > 100 µM | GI50 (COLO 205 colon): 2140 nM | TGI (COLO 205 colon): 5.81 µM | GI50 (SNB-19 CNS): 3.72 µM | TGI (SNB-19 CNS): > 100 µM | GI50 (SF-268 CNS): 1950 nM | TGI (SF-268 CNS): > 100 µM | GI50 (SK-OV-3 ovarian): 5.29 µM | TGI (SK-OV-3 ovarian): > 100 µM
